Results: patent US8815007B2, “Alkoxylated polyamines and polyetheramine polyol compositions for foam control” (priority 2007, dated 2014)

Assay: Equilibrium surface tension, double-probe bubble tensiometer
Format: physicochemical
Conditions: one bubble per second
Experimental: The antifoaming properties of the above compositions were evaluated using the blender foam test as described below. Surface tensions were determined using a […] OC-6000 double-probe bubble tensiometer. Equilibrium surface tensions were determined on 0.1% active solutions in deionized water at 25° C. by using a bubble rate of one bubble per second. […] Surface tension measurements were carried out using a Sensation QC-6000 double-probe bubble tensiometer from the Sensation Division of Chem-Dyne Research Corp. of Mesa, Ariz.

Surface Tension (Table 2, 0.1% active solutions in deionized water at 25° C.): 36.2 mN/m
Surface Tension (Table 3, 0.1% active solutions in deionized water at 25 deg C.): 36.2 mN/m
Substance: diethylenetriamine/2 mol 1-epoxyoctane adduct [Example 2]
